Reference: US12570612B2, “Substituted nitrogen heterocyclic compound and anesthetic effect thereof” (priority 2019, dated 2026)
Entries after “also recorded” stand apart in the source; their conditions may differ. Read-outs that look alike come from different tables or passages of the source.

Key:
[1] = tested on: Sprague-Dawley rats; test: animal or person; assay type: in vivo; details: LORR, up and down method, tail vein, rats, class symbols
Excerpt: (§1) Evaluating indicator: The end point of anesthesia: the disappearance of forepaw righting reflex (lorr) was used as the end point of anesthesia; General anesthesia effect: the disappearance of forepaw righting reflex in rats lasting for 30 seconds is taken as the index of general anesthesia effect; Anesthesia recovery index: the recovery of rat forepaw righting reflex was used as the index of anesthesia recovery.

[2] = tested on: Sprague-Dawley rats; test: animal or person; assay type: in vivo; details: LORR, up and down method, tail vein, rats, class symbols; remark: listed apart in the source
Excerpt: as §1, with “LORR” for “the disappearance of forepaw righting reflex (lorr)”

[3] = tested on: Sprague-Dawley rats; test: Pharmacological effect and adverse reactions under the equivalent dose (2ED50), Group C compounds; assay type: in vivo
Excerpt: (§2) Evaluation index: onset time: from the completion of drug injection to the disappearance of forepaw righting reflex in rats; Duration of anesthesia: the time from the disappearance of rat forepaw righting reflex to the recovery of rat forepaw righting reflex; Recovery time of anesthesia: the time from the […] to complete recovery;

[4] = tested on: Sprague-Dawley rats; test: Continuous infusion at 2 times the MIR for 1 hour, Group B compounds; assay type: in vivo
Method: Time to recovery of righting reflex from stopping infusion, and time to fully awake from stopping infusion were recorded.

[5] = tested on: H295R cell line; test: Adrenocortical function in vitro test: secretion of cortisol and corticosterone, Group B compounds; assay type: cell-based; details: H295R cells; for EC50: 0.1-10000 nM, HPLC-MS/MS
[6] = tested on: Sprague-Dawley rats; test: animal or person
Method: (§3) Adult male Sprague-Dawley rats (250-300 g) were selected for the experiment. […] The anesthesia effects of the compounds were assessed in rats using a LORR assay and a period >30 s was considered as an indicator of general anesthesia.

[7] = tested on: Sprague-Dawley rats; test: Pharmacological characteristics at equivalent doses (2ED50), Group A compounds; assay type: in vivo; details: 2ED50, tail vein; for Types and incidence of adverse reactions: (animals affected/animals)
[8] = tested on: Sprague-Dawley rats; test: animal or person; details: for ED50: Rattus norvegicus; for Approximate therapeutic index / Minimal lethal dose: rats
Method: as §3

[9] = tested on: H295R cell line; test: Adrenocortical function in vitro test: secretion of cortisol and corticosterone, Group A compounds; assay type: cell-based; details: H295 cells; for EC50: Homo sapiens, 0.1-10000 nM, HPLC-MS/MS
[10] = tested on: Sprague-Dawley rats; test: Pharmacological effect and adverse reactions under the equivalent dose (2ED50), Group D compounds; assay type: in vivo
Excerpt: as §2

[11] = Rattus norvegicus, read-out: ED50
[12] = 2ED50, tail vein, rats, n=8, unit min
[13] = equivalent dose (2ED50), number of rats of n = 8
[14] = continuous infusion 2 x MIR 1 hour, rats affected/rats
[15] = read-out: EC50 (Corticosterone)
[16] = equivalent dose (2 × ED50), number of rats of n = 8

## CC#CCOC(=O)C(=O)c1cncn1[C@H](C)c1ccccc1 [Compound D84]
[1]; [11]
  ED50: 2 to 6 mg/kg

## CCC(CC)OC(=O)C(=O)c1cncn1[C@H](C)c1ccccc1 [Compound D83]
[1]; [11]
  ED50: > 6 mg/kg

## C[C@H](c1ccccc1)n1cncc1C(=O)COCC1CCC1 [Compound C29]
[2]; [11]
  ED50: 2 to 10 mg/kg

## CC#CCOCC(=O)c1ccnn1[C@H](C)c1ccccc1 [Compound C1]
[2]
  ED50: ++++ (++++ indicates that the measured ED50 is in the range of 2.00-10.00 mg/kg (excluding 2.00 mg/kg, including 6.00 mg/kg))
[3]; 2ED50, tail vein, rats, n=8
  Righting reflex duration: 0.90 ± 0.30 min
  Sedation duration: 9.06 ± 1.21 min
[3]; [12]
  Onset time: <1 min
[3]; [13]
  Adverse reaction: Convulsions: 0
  Adverse reaction: Cough, broken-winded: 0
  Adverse reaction: Euphoria: 2
  Adverse reaction: Red urine: 8
  Adverse reaction: Slower breathing, Tetany convulsion: 0
  Adverse reaction: Systemic stiffness, Convulsions, Opisthotonus: 0
  Adverse reaction: Tongue stretching: 1
  Adverse reaction: Tremor: 0
  Adverse reaction: the four limbs rigidity: 0

## CCOC(=O)c1nnn([C@H](C)c2ccccc2)c1Br [Compound B100]
[4]; after 1 hour continuous infusion at 2 times the MIR, rats
  Recovery time after stopping infusion: 15 to 17 min
[4]; [14]
  Types and incidence of adverse reactions: Tongue stretching: stretching(3/6)
  Types and incidence of adverse reactions: Tremor: Tremor(2/6), Tongue
[4]; continuous tail vein infusion at 2 times the MIR, emulsion, rats
  Onset time: 5 to 6 min
[5]
  Corticosterone as an indicator to determine the presence of inhibition: 0
  Cortisol as an indicator to determine the presence of inhibition: 0
[5]; [15]
  EC50: > 1000 nM
[5]; read-out: EC50 (Cortisol)
  EC50: > 1000 nM
[6]; LORR in rats, tail vein, brackets = 95% confidence limit
  ED50: D (D indicates that the measured ED50 is in the range of 2.00-10.00 mg/kg (excluding 2.00 mg/kg, including 10.00 mg/kg))
[6]; rats
  Approximate therapeutic index: >2
  Minimal lethal dose: >18 mg/kg

## CC(=O)COCC(=O)c1c(F)ncn1[C@H](C)c1ccccc1 [Compound C84]
[2]; [11]
  ED50: 10 to 20 mg/kg

## CC#CC(=O)c1cncn1[C@H](C)c1ccccc1 [Compound C54]
[2]; [11]
  ED50: 20 to 30 mg/kg

## CC#CCOCC(OC)(OC)C(=O)c1cncn1[C@H](C)c1ccccc1 [Compound D73]
[1]
  ED50: +++++ (+++++ indicates that the measured ED50 is greater than 6.00 mg/kg (excluding 6.00 mg/kg))

## C=C=CC1(OC(=O)c2c(F)cnn2[C@H](C)c2ccccc2)COC1 [Compound A73]
[7]
  Onset time: 0.42 ± 0.07 min
  Righting reflex duration: 1.21 ± 0.45 min
  Types and incidence of adverse reactions: Red and urine(8/8), Tremor(3/8), and Facial muscle and twitching(2/8), Euphoria and (1/8), Nod(1/8)
[8]
  ED50: 0.04 to 0.5 mg/kg
  Approximate therapeutic index: >25
  Minimal lethal dose: >2 mg/kg
[9]
  Corticosterone as an indicator to determine the presence of inhibition: 0
  Cortisol as an indicator to determine the presence of inhibition: 0
[9]; [15]
  EC50: > 1000 nM
[9]; read-out: EC50 (Cortisol)
  EC50: > 1000 nM

## C=C=CC1(OC(=O)c2c(F)c(F)nn2[C@H](C)c2ccccc2)COC1 [Compound A92]
[7]
  Onset time: 0.43 ± 0.22 min
  Righting reflex duration: 2.03 ± 0.33 min
  Types and incidence of adverse reactions: Red and urine(8/8), Tremor(2/8), and Euphoria(1/8)
[8]
  ED50: 0.04 to 0.5 mg/kg
  Approximate therapeutic index: >14
  Minimal lethal dose: >1 mg/kg
[9]
  Corticosterone as an indicator to determine the presence of inhibition: 0
  Cortisol as an indicator to determine the presence of inhibition: 0
[9]; [15]
  EC50: > 1000 nM
[9]; read-out: EC50 (Cortisol)
  EC50: > 1000 nM

## C=CC#CC(C)OC(=O)c1ccnn1[C@H](C)c1ccccc1 (some centres unmarked) [Compound A15]
[7]
  Onset time: 0.40 ± 0.10 min
  Righting reflex duration: 1.82 ± 0.76 min
  Types and incidence of adverse reactions: Red urine(8/8),; also recorded: Euphoria(2/8), Hindlimb; also recorded: rigidity(2/8), Hindlimb; also recorded: Tremor(1/8)
[8]
  ED50: 2 to 6 mg/kg
  Approximate therapeutic index: >4
  Minimal lethal dose: >9 mg/kg
[9]
  Corticosterone as an indicator to determine the presence of inhibition: 0
  Cortisol as an indicator to determine the presence of inhibition: 0
[9]; [15]
  EC50: > 100 nM
[9]; read-out: EC50 (Cortisol)
  EC50: > 100 nM

## CC#CC(C)OC(=O)c1ccnn1[C@H](C)c1ccccc1 (some centres unmarked) [Compound A11]
[7]
  Onset time: 0.41 ± 0.15 min
  Righting reflex duration: 2.65 ± 1.10 min
  Types and incidence of adverse reactions: Red urine(6/6), General; also recorded: Tremor(4/6), Hindlimb; also recorded: rigidity (2/6),; also recorded: Convulsion(1/6),; also recorded: Euphoria(1/6)
[8]
  ED50: 1 to 2 mg/kg
  Approximate therapeutic index: >4
  Minimal lethal dose: >8 mg/kg
[9]
  Corticosterone as an indicator to determine the presence of inhibition: 0
  Cortisol as an indicator to determine the presence of inhibition: 0
[9]; [15]
  EC50: > 100 nM
[9]; read-out: EC50 (Cortisol)
  EC50: > 100 nM

## CC#CCOC(=O)c1c(F)cnn1[C@H](C)c1ccccc1 [Compound A72]
[7]
  Onset time: 0.41 ± 0.17 min
  Righting reflex duration: 0.71 ± 0.20 min
  Types and incidence of adverse reactions: Red and urine(8/8), Tremor(1/8), and Hindlimb rigidity (1/8)
[8]
  ED50: 0.04 to 0.5 mg/kg
  Approximate therapeutic index: >100
  Minimal lethal dose: >11 mg/kg
[9]
  Corticosterone as an indicator to determine the presence of inhibition: 0
  Cortisol as an indicator to determine the presence of inhibition: 0
[9]; [15]
  EC50: > 1000 nM
[9]; read-out: EC50 (Cortisol)
  EC50: > 1000 nM

## CC#CC(C)(C)OC(=O)c1ccnn1[C@H](C)c1ccccc1 [Compound A12]
[7]
  Onset time: 0.69 ± 0.22 min
  Righting reflex duration: 3.16 ± 2.13 min
  Types and incidence of adverse reactions: Red urine(8/8),; also recorded: Tremor(3/8),; also recorded: Euphoria(1/8), Hindlimb; also recorded: rigidity (1/8), Clonic; also recorded: convulsion(1/8), Tetany; also recorded: Apnea(1/8), Nod(1/8)
[8]
  ED50: 1 to 2 mg/kg
  Approximate therapeutic index: >4
  Minimal lethal dose: >6 mg/kg
[9]
  Corticosterone as an indicator to determine the presence of inhibition: 0
  Cortisol as an indicator to determine the presence of inhibition: 0
[9]; [15]
  EC50: > 100 nM
[9]; read-out: EC50 (Cortisol)
  EC50: > 100 nM

## CC(=O)OCC(=O)c1cncn1[C@H](C)c1ccccc1 [Compound C53]
[2]; [11]
  ED50: 10 to 20 mg/kg

## C=C=CC1(OC(=O)c2c(C(F)(F)F)cnn2[C@H](C)c2ccccc2)COC1 [Compound A100]
[7]
  Onset time: 0.49 ± 0.17 min
  Righting reflex duration: 3.21 ± 0.89 min
  Types and incidence of adverse reactions: Red urine(8/8), Indirect; also recorded: tremor Tremor(4/8), Four; also recorded: limbs; also recorded: rigidity(2/8), Euphoria(2/8)
[8]
  ED50: 2 to 6 mg/kg
  Approximate therapeutic index: >6
  Minimal lethal dose: >14 mg/kg
[9]
  Corticosterone as an indicator to determine the presence of inhibition: 0
  Cortisol as an indicator to determine the presence of inhibition: 0
[9]; [15]
  EC50: > 100 nM
[9]; read-out: EC50 (Cortisol)
  EC50: > 100 nM

## CCOC(OC)(OC)C(=O)c1ccnn1[C@H](C)c1ccccc1 [Compound D3]
[10]; 2ED50, tail vein, rats, n=8
  Righting reflex duration: 1.25 ± 0.27 min
  Sedation duration: 6.26 ± 1.50 min
[10]; [12]
  Onset time: <1 min
[10]; [16]
  Adverse reaction: Convulsions: 0
  Adverse reaction: Cough, broken-winded: 0
  Adverse reaction: Euphoria: 0
  Adverse reaction: Four limbs rigidity: 1
  Adverse reaction: Red urine: 8
  Adverse reaction: Slower breathing, Tetany convulsion: 0
  Adverse reaction: Systemic stiffness, Convulsions, Opisthotonus: 0
  Adverse reaction: Tongue stretching: 0
  Adverse reaction: Tremor: 1
[1]; [11]
  ED50: 2 to 6 mg/kg

## C[C@H](c1ccccc1)n1nccc1C(=O)OC1CSC1 [Compound A6]
[7]
  Onset time: 0.38 ± 0.12 min
  Righting reflex duration: 3.81 ± 2.17 min
  Types and incidence of adverse reactions: Red urine(8/8), Facial; also recorded: muscle; also recorded: twitching(2/8), Hindlimb; also recorded: rigidity (1/8)
[8]
  ED50: 2 to 6 mg/kg
  Approximate therapeutic index: >5
  Minimal lethal dose: >13 mg/kg
[9]
  Corticosterone as an indicator to determine the presence of inhibition: 0
  Cortisol as an indicator to determine the presence of inhibition: 0
[9]; [15]
  EC50: > 1000 nM
[9]; read-out: EC50 (Cortisol)
  EC50: > 1000 nM

## CC(=O)C1=C(OC(=O)c2c(F)c(F)nn2[C@H](C)c2ccccc2)CCC1 [Compound A98]
[7]
  Onset time: 0.30 ± 0.06 min
  Righting reflex duration: 1.89 ± 0.23 min
  Types and incidence of adverse reactions: Red urine(8/8), Facial; also recorded: muscle; also recorded: twitching(2/8), Hindlimb; also recorded: rigidity (1/8)
[8]
  ED50: 1 to 2 mg/kg
  Approximate therapeutic index: >7
  Minimal lethal dose: >10 mg/kg
[9]
  Corticosterone as an indicator to determine the presence of inhibition: 0
  Cortisol as an indicator to determine the presence of inhibition: 0
[9]; [15]
  EC50: > 1000 nM
[9]; read-out: EC50 (Cortisol)
  EC50: > 1000 nM
